Measured values: article PMC10876879, “Sustained silencing peanut allergy by xanthopurpurin is associated with suppression of peripheral and bone marrow IgE-producing B cell” (Frontiers in Immunology, 2024)

Experiments:
U266 cells [1] = assay: RT-PCR of candidate genes in XPP-treated U266 cells; format: cell-based, human
Method: RT-PCR analysis of genes related to Cell cycle, B cell differentiation, and IgE production was performed by QuantStudio 5 real-time PCR system (Thermo Fisher, Waltham, MA). For each PCR reaction, 12.5 μL maxima SYBR Green/ROX qPCR Master Mix 2x (Thermo Fisher, Waltham, MA) was mixed with 1.8 μL of 0.3 μM target primers and 300 ng of template DNA to make the total volume as 25 μL. The PCR procedure was set as […] 25°C for 5 min, 42°C for 60 min and 70°C for 15 min. GAPDH was used as the housekeeping gene. The Delta Ct values for each gene were calculated by normalizing the Ct values with the housekeeping gene. The relative fold change in mRNA expression between different groups was calculated and expressed as 2^−ΔΔCT. The primer sequence used are shown in Supplementary Table 1 .

IgE+ B cells = assay: Flow cytometry of IgE+ B cells in spleen and bone marrow of treated mice (Model #2); format: in vivo, C3H/HeJ mice; conditions: model #2, vs sham
Method: Single cell suspensions of spleen, bone marrow from two femurs and heparinized peripheral blood were isolated in AIM-V medium. Erythrocytes were lysed with red cell lysing buffer (Sigma-Aldrich, St. Louis, MO). For staining, cells were suspended in ice cold staining buffer (PBS including 0.5 mM EDTA, 0.05 mM Sodium Azide, 0.5% BSA). Surface staining was performed by incubating cells with unlabeled anti-IgE (to block membrane IgE), BV605 anti-B220, BV711-anti-CD3, anti-CD16/32 (Fc-block), all from BD Biosciences, CA). Live-dead discriminating dye (Live-Dead Aqua, Invitrogen, CA) was included. After incubation, cells were washed and suspended in fixation/permeabilization buffer for 15 mins. Cells were washed with permeabilization buffer and incubated with Fitc-anti IgE in permeabilization buffer for 30 mins in the dark on ice. After washing, cells were treated with Cytofix buffer for 15 mins for post-fixation and then washed 3 times with staining buffer and finally resuspended in 200 µL staining buffer for cell acquisition on LSRII flow cytometer (BD Bioscience, San Jose, CA). Flow cytometry analysis was performed using Flow Jo 5.4 software (Tree Star Inc., Ashland, Oregon) as follows. […] From live cell gate, all IgE+ (Fitc-IgE) cells were gated and subsequently analyzed for IgE+ B cells (Fitc-IgE +; BV605-B220+ cells).

IL-4 promoter = IL-4 promoter DNA methylation (CpG-393) in splenocytes of treated mice, bisulfite pyrosequencing; format: in vivo, C3H/HeJ mice; conditions: model #2, vs sham
Text: Genomic DNA was isolated from mouse splenocytes collected from orally sensitized mouse model#2 using Qiagen mini DNA/RNA extraction kit (Qiagen, Valencia, CA). Isolated DNA was bisulfite-modified using an Epitect plus DNA Bisulfite kit (Qiagen) following the manufacturer’s instructions. Bisulfite converted DNA was then amplified with the IL-4 primers listed below by PCR. The PCR products were subsequently purified and pyrosequenced using sequencing primers on a Pyromark Q24 system (Qiagen) as described previously ([38]). Primers for IL-4; Fwd: […]; Rev-Biotin-[…]. Sequencing (CpG -393) […].

naïve C3H/HeJ mice = assay: Sub-chronic toxicity assay; format: in vivo
Method: For acute toxicity analysis, naïve C3H/HeJ mice were fed with 4 mg of XPP per mouse, which is10 times of the daily dose. […] In the sub-chronic toxicity assay, naïve C3H/HeJ mice were fed with 5 times their daily therapeutic dose (2 mg/day) for 14 days. Control group mice (sham) were fed with water. Blood samples were collected at the end of each experiment. Blood urea nitrogen (BUN) and alanine aminotransferase (ALT) measurements for the evaluation of kidney and liver functions respectively and complete blood count (CBC) testing were performed by ALX laboratories, NY.

ARH-77 cells = assay: Cell viability of ARH-77 cells by trypan blue exclusion; format: cell-based, human; conditions: XPP 2.5-40 μg/mL
Method: Cell viability was evaluated using the trypan blue exclusion assay. Briefly, 10µL of ARH-77 cells at each testing condition was mixed with 10 µL of trypan blue dye. The mixture was then loaded into a hemocytometer and the viable cells were counted under a microscope. The percentage of viable cells was calculated as follows: Viable cells (%) = (total number of viable cells) / (total number of cells) × 100.

[2] = tested on: IgG production by ARH-77 cells; assay: IgG production by ARH-77 cells, IgG ELISA; format: cell-based, human; conditions: XPP 2.5, 5, 10, 20, and 40 μg/mL
Method: ARH-77, a human IgG-producing myeloma cell line, was purchased from ATCC (American Type Culture Collection; Manassas, VA). The culture media contains RPMI 1640 medium supplemented, 10% FBS, 1 mM sodium pyruvate, 1×10^-5 M β-ME and 0.5% penicillin-streptomycin. Cells were cultured at 37°C under 5% CO2. […] After 3 days, supernatants were harvested and IgG levels were determined using an ELISA Kit (Mabtech Inc, OH).

U266 cells [3] = assay: Cell viability of U266 cells by trypan blue exclusion; format: cell-based, human; conditions: all concentrations tested (2.5-40 µg/mL)
Method: Cell viability was evaluated using a trypan blue exclusion as previously described ([31]). Briefly, a 10µL of cells suspension from each culture was mixed with equal volume of trypan blue dye. The mixture was loaded into a hemocytometer and cells were counted under a microscope. The percentage of viable cells was calculated as follows: Viable cells (%) = (total number of viable cells)/(total number of cells) × 100.

In the case of O=C1c2ccccc2C(=O)c2c(O)cc(O)cc21 [XPP, xanthopurpurin], the CCND1 gene expression (U266 cells [1]; XPP 20 μg/mL, p < 0.001) is reported as “significantly reduced”, the IL6R gene expression (U266 cells [1]; XPP 20 μg/mL, p < 0.001) is reported as “significantly reduced” and the SCD1 gene expression (U266 cells [1]; XPP 20 μg/mL, p < 0.001) is reported as “significantly reduced”. The DUSP4 gene expression (U266 cells [1]; XPP 20 μg/mL, p < 0.01) was “significantly increased”, the PTPRC gene expression (U266 cells [1]; XPP 20 μg/mL, p < 0.01) was “significantly increased” and the ETS1 gene expression (U266 cells [1]; increasing XPP concentration) was “upregulation trend with the increasing concentration of XPP, but no significant value was observed”. For the same compound, the “Percentage of IgE+ B cells (over all IgE+ cells) in bone marrow” value (IgE+ B cells; p < 0.001) was “significantly reduced”, the “Percentage of IgE+ B cells (over all IgE+ cells) in spleen” value (IgE+ B cells; p < 0.01) was “significantly reduced” and the “Percentages of CpG methylation for CpG-393 of IL-4 promoter” value (IL-4 promoter) was “showed an increase”. The “CBC: white blood cell, red blood cell, hemoglobin and platelet levels vs control group and normal range” value (naïve C3H/HeJ mice; mouse, in vivo) was “within the normal range and similar to the control group”, the “Deaths, abnormal behavior or diarrhea” value (naïve C3H/HeJ mice; sub-chronic, 5 times (2 mg/day) for 14 consecutive days) was “No deaths and abnormal behavior or diarrhea were observed either” and the Mortality (naïve C3H/HeJ mice; sub-chronic, 5x dose (2 mg/day/mouse) for 14 days) was 0.00%. For the same compound, the “Toxicity / cell viability of ARH-77 cells” value (ARH-77 cells) was “No toxicity was observed”, the “IgG production by ARH-77 cells” value [2] was “didn’t show significant inhibition” and the “Toxicity / cell viability of U266 cells (trypan blue)” value (U266 cells [3]) was “No toxicity was observed at any concentration tested”.
